Laboratory results taken from patent US6172087A, “N-oxide of heterocyclic ester, amide, thioester, or ketone hair growth compositions and uses” (GPI NIL Holding, Inc., priority 1998, dated 2001).
“Also recorded” adds a separate entry of the source.

What was measured:
[1] = cited from earlier work
[2] = tested on: C57 black 6 mice; experiment: In Vivo Hair Generation Test With C57 Black 6 Mice, Experiment A; details: 30 μM, topical, every 48 hours (3 applications), after 6 weeks
Description: Care was taken not to nick or cause abrasion to the underlaying dermal layers. The animals were in anagen growth phase, as indicated by the pinkish color of the skin. […] Hair growth was quantitated by the percent of shaved area covered by new hair growth during this time period.

In the case of `C=CC[C@@H]1/C=C(\C)C[C@H](C)C[C@H](OC)[C@H]2O[C@@](O)(C(=O)C(=O)N3CCCC[C@H]3C(=O)O[C@H](/C(C)=C/[C@@H]3CC[C@@H](O)[C@H](OC)C3)[C@H](C)[C@@H](O)CC1=O)[C@H](C)C[C@@H]2OC` [FK506], the “hair growth on topical, but not oral, application (in words)” value [1] is given as “stimulates hair growth in a dose-dependent manner”.

For `CCC(C)(C)C(=O)C(=O)N1CCC[C@H]1C(=O)OCCCc1cccnc1` [GPI 1046, 3-(3-pyridyl)-1-propyl(2s)-1-(3,3-dimethyl-1,2-dioxopentyl)-2-pyrrolidinecarboxylate], the “hair regrowth in the shaved area (in words)” value [2] was “essentially complete hair regrowth and their shaved areas were indistinguishable from unshaven C57 black 6 mice; also recorded: essentially, complete hair regrowth in the shaved area”.
